In the supplement of paper PMC10307832:

Compound: O=C(/C=C/c1ccccc1)NC(NC(=S)Nc1cccc2cccnc12)C(Cl)(Cl)Cl [Salubrinal] + COc1cccc2cc(-c3nc([C@H]4CC[C@H](C(=O)O)CC4)n4ncnc(N)c34)[nH]c12 [OSI-027] (partner 0.5 µM)
Assay: relative viability (nuclei count vs DMSO), 5 days (fraction); higher = more cells survive
Conditions: first compound 0.08 µM
How it was run: (§1)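 Relative viability equals treated-well nuclei counts divided by vehicle-well nuclei counts. Counts came from 4× images of lung cancer cell lines grown in 1536-well plates for 5 days after pin-tool dosing on the day after seeding. Dosing used one drug alone or a fixed anchor-drug dose plus five library-drug doses (not always all listed) in √10 steps, and values are medians of duplicate plates.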

Cell Line | relative viability
NCI-H1437 | 0.9
NCI-H1755 | 0.748
NCI-H2023 | 0.442
HCC-15 | 0.722
PC-14 | 0.966
EKVX | 0.701
LC-2-ad | 0.91
NCI-H1563 | 0.784
NCI-H1975 | 0.959
RERF-LC-KJ | 0.595
ABC-1 | 0.513
NCI-H1944 | 0.384
NCI-H650 | 0.584
PC-3 [JPC-3] | 0.7

Same assay, conditions: first compound 0.253 µM

Cell Line | relative viability
NCI-H1437 | 0.811
NCI-H1755 | 0.803
NCI-H2023 | 0.354
HCC-15 | 0.665
PC-14 | 0.822
EKVX | 0.641
LC-2-ad | 0.797
NCI-H1563 | 0.751
NCI-H1975 | 0.567
RERF-LC-KJ | 0.512
ABC-1 | 0.578
NCI-H1944 | 0.389
NCI-H650 | 0.554
PC-3 [JPC-3] | 0.538

Same assay, conditions: first compound 0.8 µM

Cell Line | relative viability
NCI-H1437 | 0.924
NCI-H1755 | 0.795
NCI-H2023 | 0.406
HCC-15 | 0.824
PC-14 | 0.98
EKVX | 0.657
LC-2-ad | 1.03
NCI-H1563 | 0.74
NCI-H1975 | 0.891
RERF-LC-KJ | 0.58
ABC-1 | 0.712
NCI-H1944 | 0.483
NCI-H650 | 0.576
PC-3 [JPC-3] | 0.751

Same assay, conditions: first compound 2.53 µM

Cell Line | relative viability
NCI-H1437 | 0.912
NCI-H1755 | 0.696
NCI-H2023 | 0.333
HCC-15 | 0.666
PC-14 | 0.798
EKVX | 0.454
LC-2-ad | 0.818
NCI-H1563 | 0.741
NCI-H1975 | 0.703
RERF-LC-KJ | 0.548
ABC-1 | 0.626
NCI-H1944 | 0.387
NCI-H650 | 0.629
PC-3 [JPC-3] | 0.913

Same assay, conditions: first compound 8 µM

Cell Line | relative viability
NCI-H1437 | 0.851
NCI-H1755 | 0.633
NCI-H2023 | 0.268
HCC-15 | 0.644
PC-14 | 0.616
EKVX | 0.673
LC-2-ad | 0.782
NCI-H1563 | 0.695
NCI-H1975 | 0.405
RERF-LC-KJ | 0.437
ABC-1 | 0.371
NCI-H1944 | 0.406
NCI-H650 | 0.452
PC-3 [JPC-3] | 0.729

Compound: Cc1ccc2nc(NCCN)c3ncc(C)n3c2c1 + CS(=O)(=O)CCNCc1ccc(-c2ccc3ncnc(Nc4ccc(OCc5cccc(F)c5)c(Cl)c4)c3c2)o1 [Lapatinib] (partner 2 µM)
Assay: as above
Conditions: first compound 0.04 µM
How it was run: as §1

Cell Line | relative viability
NCI-H1437 | 0.817
NCI-H1755 | 1.1
NCI-H2023 | 0.949
HCC-15 | 0.888
PC-14 | 0.398
EKVX | 0.232
LC-2-ad | 0.939
NCI-H1563 | 0.963
NCI-H1975 | 1.01
RERF-LC-KJ | 0.834
ABC-1 | 1.18
NCI-H1944 | 0.772
NCI-H650 | 0.927
PC-3 [JPC-3] | 0.475

Same assay, conditions: first compound 0.1265 µM

Cell Line | relative viability
NCI-H1437 | 0.794
NCI-H1755 | 1.03
NCI-H2023 | 0.884
HCC-15 | 0.811
PC-14 | 0.307
EKVX | 0.197
LC-2-ad | 0.922
NCI-H1563 | 1
NCI-H1975 | 0.925
RERF-LC-KJ | 0.925
ABC-1 | 1.16
NCI-H1944 | 0.805
NCI-H650 | 0.123
PC-3 [JPC-3] | 0.45

Same assay, conditions: first compound 0.4 µM

Cell Line | relative viability
NCI-H1437 | 0.777
NCI-H1755 | 0.934
NCI-H2023 | 0.651
HCC-15 | 0.776
PC-14 | 0.41
EKVX | 0.216
LC-2-ad | 0.915
NCI-H1563 | 0.88
NCI-H1975 | 0.935
RERF-LC-KJ | 0.911
ABC-1 | 1.12
NCI-H1944 | 0.642
NCI-H650 | 0.645
PC-3 [JPC-3] | 0.42

Same assay, conditions: first compound 1.265 µM

Cell Line | relative viability
NCI-H1437 | 0.819
NCI-H1755 | 1.1
NCI-H2023 | 1.26
HCC-15 | 0.75
PC-14 | 0.289
EKVX | 0.283
LC-2-ad | 0.945
NCI-H1563 | 1.15
NCI-H1975 | 0.95
RERF-LC-KJ | 0.809
ABC-1 | 0.783
NCI-H1944 | 0.978
NCI-H650 | 0.969
PC-3 [JPC-3] | 0.448

Same assay, conditions: first compound 4 µM

Cell Line | relative viability
NCI-H1437 | 0.733
NCI-H1755 | 1.04
NCI-H2023 | 0.69
HCC-15 | 0.737
PC-14 | 0.295
EKVX | 0.213
LC-2-ad | 0.89
NCI-H1563 | 0.88
NCI-H1975 | 0.849
RERF-LC-KJ | 0.84
ABC-1 | 1.03
NCI-H1944 | 0.758
NCI-H650 | 0.761
PC-3 [JPC-3] | 0.424
